The values below are quoted from earlier work in publication PMC7310027, “PET imaging of soluble epoxide hydrolase in non-human primate brain with [^18F]FNDP” (EJNMMI Research, 2020).

Molecules are shown by their SMILES.

For the series the following is noted: cited from earlier work.

For the compound `CC(=O)N1CCC(NC(=O)NC23CC4CC(CC(C4)C2)C3)CC1` [AR-9281, 1-(1-Acetyl-piperidin-4-yl)-3-adamantan-1-yl-urea], the BBB permeability result was “BBB-permeable”.
